Experimental data published in ChEMBL document CHEMBL1811877, “Bioactive neolignans and lignans from the bark of Machilus robusta” (J Nat Prod, 2011).
Active and inactive are the calls of the source. No cut-off for these calls is given here.

Columns and labels:
PC-12 [1] = assay: Cytoprotection against serum deprivation-induced cellular damage of rat PC12 cells assessed as increase in cell viability at 10 uM after 48 hrs by MTT assay (reference value: 66.6 +/- 9.2%); assay type: functional
WB-F344 = assay: (§1) Hepatoprotective activity in rat WB-F344 cells assessed as inhibition of D-galactosamine-induced cell damage at 10 uM treated 1 hr before D-galactosamine challenge after 24 hrs by MTT assay; assay type: functional
[2] = system: Human immunodeficiency virus 1; assay: Antiviral activity against Human immunodeficiency virus 1 assessed as inhibition of viral replication at 0.001 uM; assay type: functional
PC-12 [3] = assay: Cytoprotection against rotenone-induced toxicity in rat PC12 cells assessed as increase in cell viability at 10 uM after 48 hrs by MTT assay (reference value: 73.0 +/- 9.6%); assay type: functional
[4] = system: Human immunodeficiency virus 1; assay: Antiviral activity against Human immunodeficiency virus 1 assessed as inhibition of viral replication; assay type: functional, organism-based
[5] = as §1; assay type: functional

Row | IC50 [4] [nM] | SMILES | Activity (PC-12 [1]) | inhibition (WB-F344) | inhibition [2] | Activity (PC-12 [3]) | inhibition [4] | inhibition at 10 µM [5] [%] | inhibition at 0.001 µM [2] [%]
1 | – | COc1cc([C@@H]2OC[C@H]3[C@@H]2CO[C@H]3c2ccc(O)c(OC)c2)ccc1O [(-)-PINORESINOL] | 73.2% | – | – | – | – | – | –
2 | – | COc1cc2c(cc1O)[C@H](c1cc(OC)c(O)c(OC)c1)[C@@H](C)[C@@H](COC(C)=O)C2 | inactive | inactive | inactive | inactive | inactive | – | –
3 | – | COc1cc(C[C@H](C)[C@H](C)Cc2cc(OC)c(O)c(OC)c2)ccc1O | inactive | inactive | inactive | inactive | inactive | – | –
4 | – | COc1cc([C@H]2O[C@@H](c3cc(OC)c(O)c(OC)c3)[C@H](C)[C@@H]2C)ccc1O | inactive | inactive | inactive | inactive | inactive | – | –
5 | – | COc1cc2c(cc1O)C(=O)[C@H](C)[C@H](C)C2 | inactive | inactive | inactive | inactive | inactive | – | –
6 | – | COc1cc(C[C@H](COC(C)=O)[C@H](C)Cc2cc(OC)c(O)c(OC)c2)ccc1O | inactive | inactive | inactive | inactive | inactive | – | –
7 | – | COc1cc(C[C@H](C)[C@H](C)Cc2cc(O)c(O)c(OC)c2)ccc1O | inactive | – | inactive | 96.2% | inactive | 68 | –
8 | – | COC(=O)c1cc(OC)c2c(c1-c1c(CO)cc(OC)c3c1OCO3)OCO2 [BICYCLOL] | – | – | – | – | – | 67 | –
9 | – | O=C1Nc2ccc(Cl)cc2[C@@](C#CC2CC2)(C(F)(F)F)O1 [EFAVIRENZ] | – | – | – | – | – | – | 42.5
10 | – | COc1cc2c(cc1O)C(=O)[C@H](C)[C@@H](C)C2 | inactive | inactive | inactive | inactive | inactive | – | –
11 | – | COc1cc(C[C@H](C)[C@H](C)Cc2ccc(O)cc2)ccc1O | inactive | inactive | inactive | inactive | inactive | – | –
12 | – | COc1cc2c(cc1O)[C@H](c1cc(OC)c(OC)c(OC)c1)[C@@H](C)[C@@H](C)C2 | inactive | inactive | inactive | inactive | inactive | – | –
13 | – | COc1cc([C@H]2c3c(cc(OC)c(O)c3OC)C[C@@H](CO)[C@@H]2CO)cc(OC)c1O | 79.4% | – | – | – | – | – | –
14 | – | COc1cc2c(cc1O)[C@H](c1ccc(O)c(O)c1)[C@@H](C)[C@@H](C)C2 | inactive | inactive | inactive | inactive | inactive | – | –
15 | – | COc1cc2c(cc1O)[C@H](c1cc(OC)c(O)c(OC)c1)[C@@H](C)[C@@H](C)C2 | inactive | – | inactive | inactive | inactive | 64 | –
16 | – | COc1cc(C[C@H](C)[C@H](C)Cc2cc(OC)c(OC)c(OC)c2)ccc1O | inactive | inactive | inactive | inactive | inactive | – | –
17 | 2520 | COc1cc(C[C@H](C)[C@H](C)Cc2cc(OC)c(O[C@H](C)[C@@H](O)c3ccc(O)c(OC)c3)c(OC)c2)ccc1O | inactive | inactive | inactive | inactive | – | – | –
18 | – | COc1cc2c(cc1O)[C@H](c1cc(O)c(O)c(OC)c1)[C@@H](C)[C@@H](C)C2 | inactive | – | inactive | inactive | inactive | 77.2 | –
19 | – | COc1cc([C@@H]2OC[C@H](Cc3cc(OC)c(O)c(OC)c3)[C@H]2C)ccc1O | inactive | inactive | inactive | inactive | inactive | – | –
20 | – | COc1cc(C[C@H](C)[C@H](COC(C)=O)Cc2cc(OC)c(O)c(OC)c2)ccc1O | inactive | inactive | inactive | inactive | inactive | – | –
21 | – | COc1cc([C@H](O)[C@@H](C)Oc2ccc([C@H]3c4cc(O)c(OC)cc4C[C@@H](C)[C@@H]3C)cc2OC)ccc1O | inactive | inactive | inactive | inactive | inactive | – | –
22 | 2010 | COc1cc(C[C@H](C)[C@H](C)Cc2cc(OC)c(O[C@@H](C)[C@@H](O)c3ccc(O)c(OC)c3)c(OC)c2)ccc1O | inactive | inactive | inactive | inactive | – | – | –
